Patent US20210130312A1, “INHIBITORS OF EYA3-PROTEIN TYROSINE PHOSPHATASE IN DNA DAMAGE REPAIR SIGNALING OF PULMONARY ARTERIAL HYPERTENSION” (CHILDREN'S HOSPITAL MEDICAL CENTER, priority 2018, published 2021)

Legend:
[1] = tested on: γ-H2AX and 53BP1 foci in PASMC; assay: γ-H2AX and 53BP1 staining (DDR) in lungs from rats subject to the SuHx protocol; format: in vivo, rat; conditions: lungs of SuHx rats treated with EYA-PTP inhibitor
Description: γ-H2AX foci report on the existence of DSBs, and the assembly of functional DDR complexes is characterized by the presence of 53BP1 foci. Rats subject to the SuHx protocol show increased γ-H2AX and 53BP1 staining in both PAEC and PASMC, likely as a result of oxidative stress. Rats treated with EYA-PTP inhibitor BZ had reduced γ-H2AX staining, as well as reduced 53BP1 foci formation in PASMC.

[2] = tested on: Sugen-Hypoxia (SuHx) rat model; assay: Sugen-Hypoxia (SuHx) rat model of PAH: RVSP by right heart catheterization, Fulton's index, PV remodeling; format: in vivo
Experimental: Sugen-Hypoxia (SuHx) rat model was used where a single administration of the VEGF inhibitor SU-5416 is followed by 3 weeks of hypoxia (10% O2) and PAH develops between 3-5 weeks after rats (adult Sprague-Daley males) are returned to room air. To test the effect of EYA-PTP inhibition on the development of PAH, benzarone (BZ) was administered every 3 days for 5 weeks after return to room air. The rats were maintained for a further 3 weeks in room air and then right ventricular systolic pressure (RVSP) measured by right heart catheterization. The increase in RVSP in BZ-treated rats was 32% less in BZ-treated rats than in vehicle-treated rats. Fulton's index (right ventricle/left ventricle plus septum weight) was also lower (by 28% relative to vehicle-treated controls) in BZ-treated animals indicating reduced RV hypertrophy.

[3] = rat SuHx model of PH, statement in words

CCc1oc2ccccc2c1C(=O)c1ccc(O)cc1 [BZ, benzarone]
53BP1 foci formation in PASMC [1]: reduced | γ-H2AX staining [1]: reduced | increase in RVSP, less than in vehicle-treated rats ([2]; SuHx rats, administered every 3 days for 5 weeks after return to room air, measured after a further 3 weeks in room air): 32% | Fulton's index (right ventricle/left ventricle plus septum weight), lower relative to vehicle-treated controls ([2]; SuHx rats, same regimen, indicates reduced RV hypertrophy): 28% | PV remodeling [2, 3]: effectively reduces | RVSP [2, 3]: effectively reduces
